Measurements published in ChEMBL document CHEMBL5665443, “Enzyme Inhibitor Single Concentration assay results for EUbOPEN Chemogenomics Library” (2024).
Where a SMILES comes first, the peptide text is derived from it. [ ]: non-standard residue; d: D form. Arg(Me) = CNC(=N)NCCC[C@H](N)C(=O)O; d4Pal = N[C@H](Cc1ccncc1)C(=O)O; azaGly = NNC(=O)O

Legend:
[1] = molecular target: Methyl-CpG-binding domain protein 4 (Homo sapiens) (UniProt O95243); details: Hit No;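 note: MBD4 activity read as fluorescence at 594 nm from cleavage and release of a quenched duplex DNA oligonucleotide, with APE1 coupled to incise the strand and raise turnover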
Chain of Methyl-CpG-binding domain protein 4 (Homo sapiens) (O95243 whole entry, the tested form may be a part): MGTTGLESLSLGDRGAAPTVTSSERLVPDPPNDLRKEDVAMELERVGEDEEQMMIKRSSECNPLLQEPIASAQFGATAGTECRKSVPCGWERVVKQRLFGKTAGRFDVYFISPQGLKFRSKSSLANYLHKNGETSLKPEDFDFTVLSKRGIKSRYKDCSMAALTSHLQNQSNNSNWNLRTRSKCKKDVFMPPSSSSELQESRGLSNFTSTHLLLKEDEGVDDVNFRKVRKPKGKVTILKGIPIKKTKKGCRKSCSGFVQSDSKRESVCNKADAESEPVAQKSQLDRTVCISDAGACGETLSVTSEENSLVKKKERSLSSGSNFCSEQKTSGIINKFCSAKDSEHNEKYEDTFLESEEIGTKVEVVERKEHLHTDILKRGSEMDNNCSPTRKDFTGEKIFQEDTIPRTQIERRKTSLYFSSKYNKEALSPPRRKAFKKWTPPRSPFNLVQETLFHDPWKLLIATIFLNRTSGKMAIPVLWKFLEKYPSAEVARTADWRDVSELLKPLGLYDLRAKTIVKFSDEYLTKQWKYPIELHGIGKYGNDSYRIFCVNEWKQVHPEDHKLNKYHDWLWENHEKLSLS
Description: Inhibition of MBD4 by quantifying inhibition of MBD4-mediated cleavage and dissociation of quenched duplex DNA oligonucleotides, measured as fluorescence at 594 nm. To generate a functional strand incision and increase turn-over this assay is coupled to APE1.

[2] = molecular target: Endonuclease 8-like 1 (Homo sapiens) (UniProt Q96FI4); details: Hit No;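 note: fluorescence at 594 nm from quenched duplex DNA oligonucleotides released by NEIL1 cleavage and strand separation, reported as reduction of this enzyme activity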
Chain of Endonuclease 8-like 1 (Homo sapiens) (Q96FI4 whole entry): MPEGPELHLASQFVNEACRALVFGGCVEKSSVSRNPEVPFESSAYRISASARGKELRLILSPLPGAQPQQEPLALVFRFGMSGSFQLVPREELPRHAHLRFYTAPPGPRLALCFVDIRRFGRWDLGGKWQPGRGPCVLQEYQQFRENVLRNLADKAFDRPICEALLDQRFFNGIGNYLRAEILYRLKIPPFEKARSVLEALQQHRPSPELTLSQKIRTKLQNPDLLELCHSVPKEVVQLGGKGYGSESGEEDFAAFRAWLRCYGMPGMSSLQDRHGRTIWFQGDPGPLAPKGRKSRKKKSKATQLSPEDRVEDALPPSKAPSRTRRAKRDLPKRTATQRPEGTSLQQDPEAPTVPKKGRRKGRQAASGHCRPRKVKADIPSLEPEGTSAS
Description: Inhibition of NEIL1 by quantifying inhibition of NEIL1-mediated cleavage and dissociation of quenched duplex DNA oligonucleotides, measured as fluorescence at 594 nm.

[3] = molecular target: T1, Endonuclease 8-like 2 (Homo sapiens) (UniProt Q969S2); details: Hit No;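 note: fluorescence at 594 nm reports NEIL2 cutting and release of a quenched double-stranded DNA oligo substrate, reduced signal read as inhibition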
T1 sequence (whole entry): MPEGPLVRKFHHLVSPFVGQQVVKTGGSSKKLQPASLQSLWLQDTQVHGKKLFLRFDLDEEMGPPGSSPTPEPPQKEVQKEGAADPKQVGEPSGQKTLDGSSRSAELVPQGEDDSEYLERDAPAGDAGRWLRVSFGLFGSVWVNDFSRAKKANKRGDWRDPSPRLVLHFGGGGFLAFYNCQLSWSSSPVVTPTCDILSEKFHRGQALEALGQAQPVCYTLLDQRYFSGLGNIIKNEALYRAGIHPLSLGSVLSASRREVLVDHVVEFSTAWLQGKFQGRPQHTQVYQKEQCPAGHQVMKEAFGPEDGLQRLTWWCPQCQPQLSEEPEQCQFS
Description: Inhibition of NEIL2 by quantifying inhibition of NEIL2-mediated cleavage and dissociation of quenched duplex DNA oligonucleotides, measured as fluorescence at 594 nm.

[4] = molecular target: T2, Endonuclease III-like protein 1 (Homo sapiens) (UniProt P78549); details: Hit No;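 note: enzyme assay tracking NTHL1 cutting and release of a quenched double-stranded DNA oligo substrate, read as fluorescence at 594 nm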
T2 sequence (whole entry): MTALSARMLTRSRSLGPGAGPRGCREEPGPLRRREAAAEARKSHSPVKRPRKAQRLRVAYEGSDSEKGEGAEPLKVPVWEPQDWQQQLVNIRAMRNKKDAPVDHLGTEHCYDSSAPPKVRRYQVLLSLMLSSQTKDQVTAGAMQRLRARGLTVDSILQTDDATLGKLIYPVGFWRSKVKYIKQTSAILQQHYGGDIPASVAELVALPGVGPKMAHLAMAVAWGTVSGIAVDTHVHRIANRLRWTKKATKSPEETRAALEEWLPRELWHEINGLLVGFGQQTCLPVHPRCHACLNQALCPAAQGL
Description: Inhibition of NTHL1 by quantifying inhibition of NTHL1-mediated cleavage and dissociation of quenched duplex DNA oligonucleotides, measured as fluorescence at 594 nm.

[5] = molecular target: N-glycosylase/DNA lyase (Homo sapiens) (UniProt O15527);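 note: OGG1 cleavage of a quenched duplex DNA oligonucleotide, coupled to APE1 for strand incision, read as fluorescence at 594 nm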
Chain of N-glycosylase/DNA lyase (Homo sapiens) (O15527 whole entry): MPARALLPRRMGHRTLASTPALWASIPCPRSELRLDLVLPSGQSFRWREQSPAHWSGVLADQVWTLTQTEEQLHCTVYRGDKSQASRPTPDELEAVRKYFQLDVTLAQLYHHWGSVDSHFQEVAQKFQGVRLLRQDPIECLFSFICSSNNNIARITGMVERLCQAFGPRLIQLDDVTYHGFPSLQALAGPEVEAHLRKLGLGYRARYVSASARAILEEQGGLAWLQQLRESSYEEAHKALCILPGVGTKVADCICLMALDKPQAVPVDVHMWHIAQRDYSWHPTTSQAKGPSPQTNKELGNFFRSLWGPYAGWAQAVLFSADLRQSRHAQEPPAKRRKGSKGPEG
Description: Inhibition of OGG1 by quantifying inhibition of OGG1-mediated cleavage and dissociation of quenched duplex DNA oligonucleotides, measured as fluorescence at 594 nm. To generate a functional strand incision and increase turn-over this assay is coupled to APE1.

[6] = molecular target: T3, Single-strand selective monofunctional uracil DNA glycosylase (Homo sapiens) (UniProt Q53HV7); details: Hit No;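 note: enzymatic SMUG1 assay coupled with APE1, reading fluorescence at 594 nm released when a quenched double-stranded DNA oligonucleotide substrate is cleaved and separated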
T3 sequence (whole entry): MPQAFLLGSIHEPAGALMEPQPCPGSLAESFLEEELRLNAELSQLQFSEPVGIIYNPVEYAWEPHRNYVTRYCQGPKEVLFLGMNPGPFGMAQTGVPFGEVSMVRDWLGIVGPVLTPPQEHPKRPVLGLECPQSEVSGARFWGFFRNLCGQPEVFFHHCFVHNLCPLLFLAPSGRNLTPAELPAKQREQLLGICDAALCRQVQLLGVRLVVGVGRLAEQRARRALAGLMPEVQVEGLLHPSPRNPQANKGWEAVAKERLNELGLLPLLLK
Description: Inhibition of SMUG1 by quantifying inhibition of SMUG1-mediated cleavage and dissociation of quenched duplex DNA oligonucleotides, measured as fluorescence at 594 nm. To generate a functional strand incision and increase turn-over this assay is coupled to APE1.

[7] = molecular target: G/T mismatch-specific thymine DNA glycosylase (Homo sapiens) (UniProt Q13569); details: Hit No;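 note: human TDG cleavage of quenched duplex DNA oligonucleotides coupled to APE1, strand release read as fluorescence at 594 nm, inhibition of TDG activity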
Chain of G/T mismatch-specific thymine DNA glycosylase (Homo sapiens) (Q13569 whole entry): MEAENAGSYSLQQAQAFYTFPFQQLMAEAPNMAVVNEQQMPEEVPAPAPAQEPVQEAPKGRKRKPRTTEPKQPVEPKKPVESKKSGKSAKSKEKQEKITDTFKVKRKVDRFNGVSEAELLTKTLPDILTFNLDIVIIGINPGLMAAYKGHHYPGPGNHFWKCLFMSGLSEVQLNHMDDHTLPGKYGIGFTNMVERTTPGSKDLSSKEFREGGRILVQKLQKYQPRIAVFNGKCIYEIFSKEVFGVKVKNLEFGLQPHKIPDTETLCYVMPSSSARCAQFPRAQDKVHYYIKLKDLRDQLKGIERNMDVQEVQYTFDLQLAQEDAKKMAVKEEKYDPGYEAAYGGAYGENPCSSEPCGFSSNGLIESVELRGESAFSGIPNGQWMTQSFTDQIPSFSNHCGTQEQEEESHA
Description: Inhibition of TDG by quantifying inhibition of TDG-mediated cleavage and dissociation of quenched duplex DNA oligonucleotides, measured as fluorescence at 594 nm. To generate a functional strand incision and increase turn-over this assay is coupled to APE1.

[8] = molecular target: Uracil-DNA glycosylase (Homo sapiens) (UniProt P13051); details: Hit No;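 note: UNG excision on a quenched double-stranded DNA oligo probe, with APE1 added for strand incision and turnover, read as fluorescence at 594 nm as strands separate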
Chain of Uracil-DNA glycosylase (Homo sapiens) (P13051 whole entry): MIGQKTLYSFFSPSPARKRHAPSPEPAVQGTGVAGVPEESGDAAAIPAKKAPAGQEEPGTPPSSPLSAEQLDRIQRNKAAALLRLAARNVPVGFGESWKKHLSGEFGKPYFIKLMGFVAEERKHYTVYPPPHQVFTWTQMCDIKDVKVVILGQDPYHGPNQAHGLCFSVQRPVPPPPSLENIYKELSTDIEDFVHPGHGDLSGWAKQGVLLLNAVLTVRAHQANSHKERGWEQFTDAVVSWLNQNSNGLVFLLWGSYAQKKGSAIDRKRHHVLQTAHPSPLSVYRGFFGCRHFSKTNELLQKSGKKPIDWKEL
Description: Inhibition of UNG by quantifying inhibition of UNG-mediated cleavage and dissociation of quenched duplex DNA oligonucleotides, measured as fluorescence at 594 nm. To generate a functional strand incision and increase turn-over this assay is coupled to APE1.

[9] = Compound Concentration 10.0 uM, Hit No
[10] = Compound Concentration 1.0 uM, Hit No

| Compound | inhibition ([1]; Compound Concentration 10.0 uM) | inhibition ([2]; Compound Concentration 10.0 uM) | inhibition ([3]; Compound Concentration 10.0 uM) | inhibition ([4]; Compound Concentration 10.0 uM) | inhibition [5, 9] | inhibition ([6]; Compound Concentration 10.0 uM) | inhibition ([7]; Compound Concentration 10.0 uM) | inhibition ([8]; Compound Concentration 10.0 uM) | inhibition ([5]; Compound Concentration 10.0 uM, Hit Yes) | inhibition ([1]; Compound Concentration 1.0 uM) | inhibition ([2]; Compound Concentration 1.0 uM) | inhibition ([3]; Compound Concentration 1.0 uM) | inhibition ([4]; Compound Concentration 1.0 uM) | inhibition [5, 10] | inhibition ([6]; Compound Concentration 1.0 uM) | inhibition ([7]; Compound Concentration 1.0 uM) | inhibition ([8]; Compound Concentration 1.0 uM) |
| --- | --- | --- | --- | --- | --- | --- | --- | --- | --- | --- | --- | --- | --- | --- | --- | --- | --- |
| CCn1c(CNC(=O)c2ncc(C)nc2N)[n+](CC)c2ccc(C(=O)N(C)CCN(C)C)cc21 | 47.5% | -4.53% | 1.3% | -6.55% | 14.2% | 1.28% | 100% | -0.563% | – | – | – | – | – | – | – | – | – |
| OC(c1ccc(-c2ccc(CN3CCN(Cc4ccncc4)CC3)cc2)c(F)c1)(C(F)(F)F)C(F)(F)F | 47.6% | -6.8% | -2.02% | -8.52% | -1.15% | -2.17% | 64.2% | -1.04% | – | – | – | – | – | – | – | – | – |
| O=C(NCCCn1ccnc1)c1cc2nc(-c3ccccc3)cc(-c3ccccc3)n2n1 | 28.3% | – | -9.67% | -4.57% | -1.93% | 12% | 44.7% | 4.11% | – | – | – | – | – | – | – | – | – |
| Cc1cc(C)c(S(=O)(=O)N(Cc2ccc(-c3cccc(S(C)(=O)=O)c3)cc2)Cc2ccc(C(F)(F)F)o2)c(C)c1 | 60.3% | – | -8.4% | 5.94% | -3.9% | 7.91% | 97.7% | -2.84% | – | – | – | – | – | – | – | – | – |
| O=C1NC(c2ccccn2)Sc2ccccc21 (configuration not stated) | 55.9% | – | -4.83% | -7.2% | -4.34% | 8.24% | 34% | -1.67% | – | – | – | – | – | – | – | – | – |
| NS(=O)(=O)c1cc(NC(=O)C2(c3ccccc3Cl)CC2)ccc1Oc1cccc(Cl)c1 | 26.3% | -2.56% | 3.34% | -7.86% | 21.8% | 17.9% | 35.3% | -3.29% | – | – | – | – | – | – | – | – | – |
| CN(C)CC#Cc1ccc(OCCCc2sc(N3CCc4cccc(C(=O)Nc5nc6ccccc6s5)c4C3)nc2C(=O)O)c(F)c1 | 47.6% | -0.896% | -4.83% | 0.0274% | – | 1.49% | 40.4% | 1.14% | 85.3% | – | – | – | – | – | – | – | – |
| COc1ccc(CC[C@@H](OC(=O)[C@H]2CCCCN2C(=O)[C@@H](c2cc(OC)c(OC)c(OC)c2)C2CCCCC2)c2cccc(OCCN3CCOCC3)c2)cc1OC | 63.9% | -4.53% | 4.61% | 0.685% | -1.2% | 19.6% | 97% | 9.57% | – | – | – | – | – | – | – | – | – |
| CS(=O)(=O)c1cc(C2(NC(=O)c3cncc4c3cnn4-c3ccc(F)cc3)CC2)ccn1 | – | – | – | – | – | – | – | – | – | 53.3% | -0.745% | 1.04% | 0.0274% | -1.05% | 7.38% | 54.5% | 0.429% |
| Cc1cc(OCC(=O)O)cc(C)c1Cc1ccc(O)c(C(C)C)c1 | 57.9% | -0.29% | 4.61% | 7.26% | 20.6% | 9.54% | 63% | 2.02% | – | – | – | – | – | – | – | – | – |
| COc1cc(-c2cncc(-c3ccc(N4CCN(C(C)C)CC4)cc3)c2C)cc(F)c1C(=O)N1CCCC1 | 0.55% | 3.31% | -8.65% | 0.0872% | 12.1% | 28.7% | 47.2% | 7.27% | – | – | – | – | – | – | – | – | – |
| CNC(=N)NCCC[C@H](NC(=O)[C@H](CC(C)C)NC(=O)NNC(=O)[C@H](Cc1ccccc1)NC(=O)[C@H](CO)NC(=O)[C@H](CC(N)=O)NC(=O)[C@@H](Cc1ccncc1)NC(=O)[C@H](N)Cc1ccc(O)cc1)C(=O)N[C@@H](Cc1ccccc1)C(N)=O (H-[dY][d4Pal]NSF[azaGly]L[Arg(Me)]F-NH2) | 54% | -4.68% | 6.4% | -1.29% | -3.16% | 19.5% | 52.5% | 6.61% | – | – | – | – | – | – | – | – | – |
| CNC(=O)COc1cc2cc(Nc3nc(N4C[C@H](C)C[C@H](C)C4)ncc3Cl)ccc2n(C)c1=O | 45.8% | -7.56% | 4.1% | -7.86% | 1.85% | 10.3% | 53.4% | 2.34% | – | – | – | – | – | – | – | – | – |
| CN(C)C(=O)Cn1cc(-c2nc(C3(c4ccc(-c5cnc(N)nc5)cc4)CC3)no2)cn1 | 22.8% | – | 0.0213% | -5.89% | 28.7% | 11.1% | 43.7% | 1.06% | – | – | – | – | – | – | – | – | – |
| CN([C@@H]1CCc2c(CC(=O)O)c3ccccc3n2C1)S(=O)(=O)c1ccc(F)cc1 | 28.2% | – | -4.06% | 10.6% | 5.88% | 15.5% | 9.01% | 2.73% | – | – | – | – | – | – | – | – | – |
| COc1ccc2c(c1)O[C@@H](c1ccc(OC)c(OC)c1)C[C@H]2NC(=O)C1(c2ccc3c(c2)OC(F)(F)O3)CC1 | 35.4% | – | -1.51% | -7.86% | -6.31% | -5.34% | 25.6% | -6.88% | – | – | – | – | – | – | – | – | – |
| C[C@H](c1ccc(F)cc1)N(Cc1ccc(Cl)c(C(=O)O)c1)C(=O)c1cnc2ccccc2c1 | 52.3% | – | -8.14% | -7.86% | 8.39% | 16.2% | 31.5% | 1.41% | – | – | – | – | – | – | – | – | – |
| CCOC(=O)c1ccc(CN(Cc2ccc(-c3cccc(S(C)(=O)=O)c3)cc2)S(=O)(=O)c2c(C)cc(C)cc2C)o1 | 46% | – | -7.63% | -3.26% | 0.574% | 14.1% | 35% | 0.52% | – | – | – | – | – | – | – | – | – |
| C[C@H](c1ccnc(Nc2nc3ccc(-c4cc(N(C)C)ncn4)cc3[nH]2)c1)N1CCN(C(=O)CC(F)(F)F)CC1 | 37.6% | – | -5.59% | -3.92% | -2.48% | 11.6% | 87.4% | 1.7% | – | – | – | – | – | – | – | – | – |
| CCCCN(CCCC)C(=O)CN1C[C@H](c2cc(OC)c3c(c2)OCO3)[C@@H](C(=O)O)[C@@H]1CC(C)(C)CCC | – | – | – | – | – | – | – | – | – | 62.3% | – | -9.42% | 11.2% | 14.6% | 14.3% | 54.3% | -0.907% |
| COc1cnccc1Nc1nc(-c2nn(Cc3c(F)cc(OCCO)cc3F)c3ccccc23)ncc1OC | 52.5% | – | – | -7.86% | 14.4% | 6.21% | 11.1% | -1.2% | – | 47.4% | – | -7.84% | 4.97% | – | 7.99% | 29.7% | 1.12% |
| CNC(=O)COc1cc2cc(Nc3nc(N4CCC(C(=O)N(C)C)CC4)ncc3Cl)cc(OC)c2n(C)c1=O | 50.6% | – | -6.1% | -0.63% | 4.56% | 3.52% | 86.8% | 0.116% | – | – | – | – | – | – | – | – | – |
| C[C@H](c1ccc(F)cc1)N(Cc1cccc(C(=O)O)c1)C(=O)c1cnc2ccccc2c1 | 54.2% | – | 0.531% | 5.94% | -1.34% | 15.5% | 99.9% | 1.51% | – | – | – | – | – | – | – | – | – |
| O=c1nc(-c2ccccn2)sc2ccccc12 | 53.8% | – | 17.4% | 2% | 10.7% | 5.03% | 99.2% | -3.04% | – | – | – | – | – | – | – | – | – |
| O=C(Nc1cccnn1)N1CCC(=Cc2cccc(Oc3ccc(C(F)(F)F)cn3)c2)CC1 | 65.2% | – | -7.12% | 5.94% | -7.84% | 17% | 59.6% | 0.719% | – | – | – | – | – | – | – | – | – |
| CN(C)C(=O)/C(C#N)=C/c1ccc(-c2nc3cnc4c(ccn4C)c3n2C2CCCCC2)o1 | – | – | – | – | – | – | – | – | – | 95% | – | -3.8% | 0.785% | -5.75% | 2.69% | 49.4% | -0.285% |
